This note sets out measurements from patent publication US20090099195A1 (ASTRAZENECA AB, priority 2007, published 2009).

Some results are limits rather than exact numbers.

The target in the assay is T1, hP2X3 (human Purinergic P2X receptors subtype 3), clone B (Homo sapiens, UniProt P56373).
T1 sequence (P56373 1-397): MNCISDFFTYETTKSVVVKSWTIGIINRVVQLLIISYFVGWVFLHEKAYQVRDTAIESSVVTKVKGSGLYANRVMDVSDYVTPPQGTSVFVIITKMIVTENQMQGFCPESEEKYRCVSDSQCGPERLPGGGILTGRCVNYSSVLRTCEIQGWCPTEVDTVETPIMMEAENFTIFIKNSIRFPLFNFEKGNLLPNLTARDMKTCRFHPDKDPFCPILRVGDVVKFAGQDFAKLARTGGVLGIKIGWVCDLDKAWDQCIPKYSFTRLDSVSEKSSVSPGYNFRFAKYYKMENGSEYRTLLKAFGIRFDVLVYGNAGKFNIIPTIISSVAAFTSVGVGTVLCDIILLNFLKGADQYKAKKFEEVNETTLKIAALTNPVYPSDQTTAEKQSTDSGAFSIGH
In words: hP2X3 FLIPR calcium (Fluo-4) antagonist assay, clone B. Particulars: Human P2X3 FLIPR Clone B IC50 (nM), RLE cells expressing hP2X3 clone B (NM_002559); agonist 500 nM α,β-methylene-ATP.

With `CC(=O)N1CCN(c2nc3c(c(N(Cc4ccccc4)CC4CCCO4)n2)CN(C(C)C)C3=O)CC1` (stereo not shown) [Example 3, 2-(4-acetylpiperazin-1-yl)-4-[benzyl(tetrahydrofuran-2-ylmethyl)amino]-6-isopropyl-5,6-dihydro-7H-pyrrolo[3,4-d]pyrimidin-7-one], the IC50 turned out to be 4600 nM. For the compound `CC(C)N1Cc2c(NC(c3ccccc3)c3ccccc3)nc(NCc3cccnc3)nc2C1=O` [Example 94, 4-(Benzhydryl-amino)-6-isopropyl-2-[(pyridin-3-ylmethyl)-amino]-5,6-dihydro-pyrrolo[3,4-d]pyrimidin-7-one], the IC50 came to 250 nM. In the case of `CC(=O)N1CCN(c2nc(NC(C)C3COc4ccccc4O3)c3c(n2)C(=O)N(C(C)C)C3)CC1` (single isomer, unassigned) [Example 178, 2-(4-acetylpiperazin-1-yl)-4-(1-(2,3-dihydrobenzo[b][1,4]dioxin-2-yl)ethylamino)-6-isopropyl-5H-pyrrolo[3,4-d]pyrimidin-7(6H)-one], the IC50 stood at 970 nM. On to `CC(C)N1Cc2c(NCc3cnc4ccccc4c3)nc(N3CCC(N(C)C)C3)nc2C1=O` (stereo not shown) [Example 213, 2-(3-dimethylaminopyrrolidin-1-yl)-6-isopropyl-4-(3-quinolylmethylamino)-5H-pyrrolo[3,4-d]pyrimidin-7-one], for which the IC50 was 1100 nM.

As to `CC(=O)NC1CCN(c2nc(NCc3cnc4ccccc4c3)c3c(n2)C(=O)N(C(C)C)C3)C1` (stereo not shown) [Example 207, N-(1-(6-isopropyl-7-oxo-4-(quinolin-3-ylmethylamino)-6,7-dihydro-5H-pyrrolo[3,4-d]pyrimidin-2-yl)pyrrolidin-3-yl)acetamide], the IC50 is 7100 nM. As for `CC(=O)N1CCN(c2nc3c(c(N4CCC4Cc4ccccc4)n2)CN(C(C)C)C3=O)CC1` (stereo not shown) [Example 273, 4-(4-acetylpiperazin-1-yl)-2-(2-benzylazetidin-1-yl)-8-propan-2-yl-3,5,8-triazabicyclo[4.3.0]nona-1,3,5-trien-7-one], the IC50 is 3200 nM. For `O=C1c2nc(N3CCOCC3)nc(NC(c3ccccc3)c3ccccc3)c2CN1C1CCCC1` [Example 75, 4-(Benzhydryl-amino)-6-cyclopentyl-2-morpholin-4-yl-5,6-dihydro-pyrrolo[3,4-d]pyrimidin-7-one] the value was greater than 30000 nM. As to `CC(=O)N1CCN(c2nc(NC(C(=O)O)c3ccc(C(F)(F)F)cc3)c3c(n2)C(=O)N(C(C)C)C3)CC1` (stereo not shown) [Example 35, {[2-(4-acetylpiperazin-1-yl)-6-isopropyl-7-oxo-6,7-dihydro-5H-pyrrolo[3,4-d]pyrimidin-4-yl]amino}[4-(trifluoromethyl)phenyl]acetic acid], the IC50 worked out at 1200 nM. For `CC(C)N1Cc2c(NC(c3ccccc3)c3ccc(Cl)cc3)nc(NCCN(C)C)nc2C1=O` (stereo not shown) [Example 9, 4-{[(4-chlorophenyl)(phenyl)methyl]amino}-2-{[2-(dimethylamino)ethyl]amino}-6-isopropyl-5,6-dihydro-7H-pyrrolo[3,4-d]pyrimidin-7-one], the half-inhibitory concentration (IC50) is 91 nM. Regarding `CC(=O)N1CCN(c2nc3c(c(N4CCCC4Cc4ccccc4)n2)CN(C(C)C)C3=O)CC1` (stereo not shown) [Example 54, 2-(4-acetylpiperazin-1-yl)-4-(2-benzylpyrrolidin-1-yl)-6-isopropyl-5,6-dihydro-7H-pyrrolo[3,4-d]pyrimidin-7-one], the IC50 is 240 nM. For the compound `CCN(Nc1nc(N2CCN(C(C)=O)CC2)nc2c1CN(C(C)C)C2=O)c1ccc(C)cc1` [Example 39, 2-(4-acetylpiperazin-1-yl)-4-[2-ethyl-2-(4-methylphenyl)hydrazino]-6-isopropyl-5,6-dihydro-7H-pyrrolo[3,4-d]pyrimidin-7-one], the IC50 stood at 10000 nM. For `CC(=O)N1CCN(c2nc3c(c(N4CCCC4c4ccc5ncccc5c4)n2)CN(C(C)C)C3=O)CC1` (single isomer, unassigned) [Example 284, 4-(4-acetylpiperazin-1-yl)-8-propan-2-yl-2-(2-quinolin-6-ylpyrrolidin-1-yl)-3,5,8-triazabicyclo[4.3.0]nona-1,3,5-trien-7-one], the IC50 came to 9900 nM. The same measure for `CC(C)N1Cc2c(NC(c3ccc(F)cc3)c3ccc(F)cc3)nc(N3CC4CC3CN4C)nc2C1=O` (stereo not shown) [Example 23, 4-{[bis(4-fluorophenyl)methyl]amino}-6-isopropyl-2-(5-methyl-2,5-diazabicyclo[2.2.1]hept-2-yl)-5,6-dihydro-7H-pyrrolo[3,4-d]pyrimidin-7-one]: 210 nM; for `CC(C)N1Cc2c(NC(C)(C)Cc3ccc(Cl)cc3)nc(N3CCNC(=O)CC3)nc2C1=O` [Example 68, 4-{[2-(4-chlorophenyl)-1,1-dimethylethyl]amino}-6-isopropyl-2-(5-oxo-1,4-diazepan-1-yl)-5,6-dihydro-7H-pyrrolo[3,4-d]pyrimidin-7-one]: 350 nM; for `CC(=O)N1CCN(c2nc(NC(C)(C)Cc3ccccc3C)c3c(n2)C(=O)N(C(C)C)C3)CC1` [Example 197, 2-(4-acetylpiperazin-1-yl)-6-isopropyl-4-(2-methyl-1-o-tolylpropan-2-ylamino)-5H-pyrrolo[3,4-d]pyrimidin-7(6H)-one]: 1900 nM. `CC(=O)N1CCN(c2nc(NC(C)C3COc4ccccc4O3)c3c(n2)C(=O)N(C(C)C)C3)CC1` (single isomer, unassigned) [Example 179, 2-(4-acetylpiperazin-1-yl)-4-(1-(2,3-dihydrobenzo[b][1,4]dioxin-2-yl)ethylamino)-6-isopropyl-5H-pyrrolo[3,4-d]pyrimidin-7(6H)-one]: the IC50 is 190 nM. For `CC(C)N1Cc2c(NCc3cnc4ccccc4c3)nc(N3CCNC(=O)C3)nc2C1=O` [Example 206, 6-isopropyl-2-(3-oxopiperazin-1-yl)-4-(quinolin-3-ylmethylamino)-5H-pyrrolo[3,4-d]pyrimidin-7(6H)-one] the value was 3200 nM; for `CCC(C)N1Cc2c(NC(C)(C)Cc3ccc(F)cc3)nc(N3CCN(C(C)=O)CC3)nc2C1=O` (stereo not shown) [Example 312, 2-(4-acetylpiperazin-1-yl)-6-sec-butyl-4-(1-(4-fluorophenyl)-2-methylpropan-2-ylamino)-5H-pyrrolo[3,4-d]pyrimidin-7(6H)-one], 160 nM. As for `CC(=O)N1CCN(c2nc(NCc3nc(C4CCCC4)no3)c3c(n2)C(=O)N(C(C)C)C3)CC1` [Example 276, 4-(4-acetylpiperazin-1-yl)-2-[(3-cyclopentyl-1,2,4-oxadiazol-5-yl)methylamino]-8-propan-2-yl-3,5,8-triazabicyclo[4.3.0]nona-1,3,5-trien-7-one], the IC50 worked out at 590 nM.

`CC(C)N1Cc2c(NC3c4cccnc4CCc4c(F)cccc43)nc(NCCN(C)C)nc2C1=O` (stereo not shown) [Example 21, 2-{[2-(dimethylamino)ethyl]amino}-4-[(9-fluoro-10,11-dihydro-5H-benzo[4,5]cyclohepta[1,2-b]pyridin-5-yl)amino]-6-isopropyl-5,6-dihydro-7H-pyrrolo[3,4-d]pyrimidin-7-one]: the IC50 was 140 nM. The same measure for `CC(=O)N1CCN(c2nc(N[C@@H](C)c3ccc(OC(CF)CF)cc3)c3c(n2)C(=O)N(C(C)C)C3)CC1` [Example 251, (S)-2-(4-acetylpiperazin-1-yl)-4-(1-(4-(1,3-difluoropropan-2-yloxy)phenyl)ethylamino)-6-isopropyl-5H-pyrrolo[3,4-d]pyrimidin-7(6H)-one]: 5200 nM. As for `CC(=O)N1CCN(c2nc(NCc3cnc4ccccc4c3)c3c(n2)C(=O)N(C(C)C)C3)C(C)C1` (stereo not shown) [Example 352, 2-(4-Acetyl-2-methylpiperazin-1-yl)-6-isopropyl-4-(quinolin-3-ylmethylamino)-5H-pyrrolo[3,4-d]pyrimidin-7(6M)-one], the IC50 turned out to be 200 nM. For the compound `CC(C)N1Cc2c(NCc3cnc4ccccc4c3)nc(N3CCC(N(C)C)CC3)nc2C1=O` [Example 218], the IC50 turned out to be 7800 nM. Take `CC(=O)N1CCN(c2nc3c(c(N(Cc4cc5ccccc5cn4)CC(F)F)n2)CN(C(C)C)C3=O)CC1` [Example 256, 2-(4-acetylpiperazin-1-yl)-4-((2,2-difluoroethyl)(isoquinolin-3-ylmethyl)amino)-6-isopropyl-5H-pyrrolo[3,4-d]pyrimidin-7(6H)-one]: the IC50 was found to be 46 nM.

With `CC(=O)N1CCN(c2nc3c(c(N4CCCC4c4ccc5ncccc5c4)n2)CN(C(C)C)C3=O)CC1` (single isomer, unassigned) [Example 285, 4-(4-acetylpiperazin-1-yl)-8-propan-2-yl-2-(2-quinolin-6-ylpyrrolidin-1-yl)-3,5,8-triazabicyclo[4.3.0]nona-1,3,5-trien-7-one], the IC50 is 100 nM. Turning to `Cc1ccc(C(Nc2nc(NCCN(C)C)nc3c2CN(C(C)C)C3=O)c2ccccc2)cc1` (stereo not shown) [Example 7, 2-{[2-(dimethylamino)ethyl]amino}-6-isopropyl-4-{[(4-methylphenyl)(phenyl)methyl]amino}-5,6-dihydro-7H-pyrrolo[3,4-d]pyrimidin-7-one], the half-inhibitory concentration (IC50) came to 85 nM.

`CC(=O)N1CCN(c2nc3c(c(N(Cc4cc5ccccc5cn4)CC(F)(F)F)n2)CN(C(C)C)C3=O)CC1` [Example 264, 2-(4-acetylpiperazin-1-yl)-6-isopropyl-4-((isoquinolin-3-ylmethyl)(2,2,2-trifluoroethyl)amino)-5H-pyrrolo[3,4-d]pyrimidin-7(6H)-one]: the IC50 is 2900 nM. Turning to `CC(C)N1Cc2c(nc(NCCN(C)C)nc2N(Cc2ccccc2)Cc2ccccc2)C1=O` [Example 106, 4-Dibenzylamino-2-(2-dimethylamino-ethylamino)-6-isopropyl-5,6-dihydro-pyrrolo[3,4-d]-pyrimidin-7-one], the IC50 came out at 5300 nM.

A word on the IC50: it is the concentration that gives 50% inhibition.
